Values of other authors, collected in patent US10583154B2, “Multi-dose compositions containing an antimicrobial polyamide or octenidine preservative” (priority 2016, dated 2020).

Columns and labels:
Conditions in all cases: cited from earlier work
E. coli = tested on: E. coli
Aspergillus niger = tested on: Aspergillus niger
Staphylococcus aureus = tested on: Staphylococcus aureus
Candida albicans = tested on: Candida albicans
Pseudomonas aeruginosa = tested on: Pseudomonas aeruginosa

C[CH2][Hg][S]c1ccccc1C(=O)[O-].[Na+] [thimerosal]
Minimum Inhibitory Concentration (MIC) (E. coli): 4 to 8 µg/mL | Minimum Inhibitory Concentration (MIC) (Aspergillus niger): 128 µg/mL | Minimum Inhibitory Concentration (MIC) (Staphylococcus aureus): 0.2 µg/mL | Minimum Inhibitory Concentration (MIC) (Candida albicans): 32 µg/mL | Minimum Inhibitory Concentration (MIC) (Pseudomonas aeruginosa): 4 to 8 µg/mL
